In patent publication US20230373985A1 (Origenis Gmbh, priority 2020, published 2023):
pIC50: −log10 of the molar value.

Experiments:
[1] = biological target: T1, wt human LRRK2, catalytic site (Homo sapiens, UniProt Q5S007); experiment: TR-FRET LanthaScreen Eu Kinase Binding Assay, LRRK2 wt; settings: one range stated for wt and G2019, read-out: IC50, Activity Toward LRRK2(Wt)
T1 construct: 5 nM wt human LRRK2, catalytic site; purchased ThermoFisher
Procedure, shortened: (§1)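 Competitive tracer-displacement TR-FRET, 1 h at room temperature, read as emission ratio. LRRK2 (wt or G2019S catalytic domain) at 5 nM with 2 nM Eu-anti-GST and 10 nM Tracer 236; full-length NUAK1 at 8 nM with 2 nM Eu-anti-His and 5 nM Tracer 236, all final in Kinase Buffer A.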

[2] = biological target: T2, wt human TYK2, catalytic site (Homo sapiens, UniProt P29597); experiment: HTRF KinEASE assay, TYK2; format: biochemical; settings: 1 μM ATP; read-out: IC50, Activity Toward TYK2
T2 construct: wt human TYK2, catalytic site; purchased SignalChem
T2 sequence (P29597 897-1176 limits assumed): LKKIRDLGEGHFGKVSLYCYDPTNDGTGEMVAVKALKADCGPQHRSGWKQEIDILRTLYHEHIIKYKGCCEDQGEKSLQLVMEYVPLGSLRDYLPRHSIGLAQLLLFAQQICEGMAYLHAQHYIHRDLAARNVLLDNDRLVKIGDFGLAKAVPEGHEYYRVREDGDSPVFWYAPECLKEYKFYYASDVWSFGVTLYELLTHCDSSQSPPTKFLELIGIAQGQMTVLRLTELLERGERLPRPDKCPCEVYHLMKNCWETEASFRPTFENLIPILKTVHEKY
Procedure, shortened: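 HTRF KinEASE-TK readout with 1 μM biotinylated TK substrate in 1× kinase buffer, ≥30 min at room temperature, then antibody/streptavidin-XL665 detection for 60 min. TYK2 at 2 nM with 1 μM ATP; JAK2 at 1 nM with 100 μM ATP. Analysis uses emission ratios.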

[3] = biological target: T3, G2019S human LRRK2, catalytic site (Homo sapiens, UniProt Q5S007, G2019S); experiment: TR-FRET LanthaScreen Eu Kinase Binding Assay, LRRK2 G2019S; settings: LRRK2(G2019); one range stated for wt and G2019; read-out: IC50, Activity Toward LRRK2(G2019)
T3 construct: G2019S human LRRK2, catalytic site; purchased ThermoFisher
T3 sequence (Q5S007 970-2527 G2019S limits assumed): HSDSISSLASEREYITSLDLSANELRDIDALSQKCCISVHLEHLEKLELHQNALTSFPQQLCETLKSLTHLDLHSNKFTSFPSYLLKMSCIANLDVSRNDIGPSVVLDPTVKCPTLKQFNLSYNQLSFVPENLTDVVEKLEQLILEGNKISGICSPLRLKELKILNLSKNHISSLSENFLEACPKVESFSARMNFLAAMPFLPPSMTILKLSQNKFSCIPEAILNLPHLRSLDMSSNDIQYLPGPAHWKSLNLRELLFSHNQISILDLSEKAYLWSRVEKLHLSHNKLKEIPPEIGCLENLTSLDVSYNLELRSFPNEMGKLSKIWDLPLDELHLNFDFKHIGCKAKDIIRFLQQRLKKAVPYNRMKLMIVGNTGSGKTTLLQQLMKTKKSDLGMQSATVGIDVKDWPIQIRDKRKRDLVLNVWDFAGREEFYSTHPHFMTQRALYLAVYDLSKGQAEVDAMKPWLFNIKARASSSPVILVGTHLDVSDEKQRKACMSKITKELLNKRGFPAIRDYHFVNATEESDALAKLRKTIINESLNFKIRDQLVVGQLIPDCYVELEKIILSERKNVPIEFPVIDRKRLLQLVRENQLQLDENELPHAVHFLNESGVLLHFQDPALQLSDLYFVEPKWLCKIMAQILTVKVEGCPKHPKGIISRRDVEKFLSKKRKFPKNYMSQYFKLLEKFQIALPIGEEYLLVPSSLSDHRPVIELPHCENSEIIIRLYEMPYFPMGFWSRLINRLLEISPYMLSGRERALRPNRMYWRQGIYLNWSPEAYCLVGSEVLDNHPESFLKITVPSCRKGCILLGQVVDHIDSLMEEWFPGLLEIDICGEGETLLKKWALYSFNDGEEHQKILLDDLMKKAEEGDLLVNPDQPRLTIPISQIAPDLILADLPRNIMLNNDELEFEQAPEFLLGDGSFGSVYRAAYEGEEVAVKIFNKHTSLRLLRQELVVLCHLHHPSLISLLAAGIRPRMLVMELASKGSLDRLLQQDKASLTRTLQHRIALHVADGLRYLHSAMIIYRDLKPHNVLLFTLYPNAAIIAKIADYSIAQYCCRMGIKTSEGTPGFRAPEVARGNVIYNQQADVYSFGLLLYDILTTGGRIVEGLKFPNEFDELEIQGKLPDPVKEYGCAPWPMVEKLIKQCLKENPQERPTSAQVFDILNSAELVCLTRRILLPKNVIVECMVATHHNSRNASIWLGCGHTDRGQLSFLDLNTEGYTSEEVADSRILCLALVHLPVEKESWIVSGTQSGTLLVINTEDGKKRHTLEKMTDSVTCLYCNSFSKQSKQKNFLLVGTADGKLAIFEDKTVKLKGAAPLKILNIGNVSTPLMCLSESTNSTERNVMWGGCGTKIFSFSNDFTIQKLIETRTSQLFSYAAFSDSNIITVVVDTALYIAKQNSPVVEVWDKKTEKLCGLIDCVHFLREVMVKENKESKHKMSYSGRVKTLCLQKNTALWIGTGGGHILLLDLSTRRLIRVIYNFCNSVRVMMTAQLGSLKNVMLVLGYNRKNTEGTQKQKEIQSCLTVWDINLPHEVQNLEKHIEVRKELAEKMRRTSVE
Procedure, shortened: as §1

[4] = biological target: T4, wt human JAK2, catalytic site (Homo sapiens, UniProt O60674); experiment: HTRF KinEASE assay, JAK2; format: biochemical; settings: assay format not given (Z'-LYTE or HTRF KinEASE); read-out: IC50, Activity Toward JAK2
T4 construct: wt human JAK2, catalytic site; purchased SignalChem
T4 sequence (O60674 849-1124 limits assumed): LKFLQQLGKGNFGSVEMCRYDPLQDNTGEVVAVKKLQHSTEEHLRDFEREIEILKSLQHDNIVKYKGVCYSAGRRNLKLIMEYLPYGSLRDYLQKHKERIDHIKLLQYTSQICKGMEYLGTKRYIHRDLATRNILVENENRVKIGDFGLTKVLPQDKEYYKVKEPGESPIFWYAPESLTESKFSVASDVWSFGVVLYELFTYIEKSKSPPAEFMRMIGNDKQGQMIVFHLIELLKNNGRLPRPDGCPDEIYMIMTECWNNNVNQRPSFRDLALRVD
Procedure: Basic protocol for HTRF KinEASE assay (Cisbio/FRA) inhibitor studies involved two steps: • Enzymatic step: Addition of 4 μL of test compound in corresponding DMSO dilutions, 4 μL of kinase/substrate mixture, 2 μL of ATP into 384 well small volume plates. Incubation for at least 30 minutes at room temperature. • Detection step: Addition of 5 μL antibody and 5 μL streptavidin-XL665, read plate after 60 minutes. Data analysis of emission ratios according KinEASE assay protocol.
(§2) Kinase and assay components were adjusted to final concentrations according to kit protocol. For TYK2: 2 nM wt human TYK2, catalytic site (SignalChem/CAN), 1 μM HTRF KinEASE-TK Substrate-biotin, 1 μM ATP in 1× Kinase Buffer. For JAK1: 4 nM wt human JAK1, catalytic site (ThermoFisher/USA), 1 μM HTRF KinEASE-TK Substrate-biotin, 2.5 μM ATP in 1× Kinase Buffer. For JAK2: 1 nM wt human JAK2, catalytic site (SignalChem/CAN), 1 μM HTRF KinEASE-TK Substrate-biotin, 100 μM ATP in 1× Kinase Buffer.
as §2

[5] = biological target: T5, wt human JAK1, catalytic site (Homo sapiens, UniProt P23458); experiment: HTRF KinEASE assay, JAK1; format: biochemical; settings: 2.5 μM ATP; read-out: IC50, Activity Toward JAK1
T5 construct: wt human JAK1, catalytic site; purchased ThermoFisher
T5 sequence (P23458 875-1153 limits assumed): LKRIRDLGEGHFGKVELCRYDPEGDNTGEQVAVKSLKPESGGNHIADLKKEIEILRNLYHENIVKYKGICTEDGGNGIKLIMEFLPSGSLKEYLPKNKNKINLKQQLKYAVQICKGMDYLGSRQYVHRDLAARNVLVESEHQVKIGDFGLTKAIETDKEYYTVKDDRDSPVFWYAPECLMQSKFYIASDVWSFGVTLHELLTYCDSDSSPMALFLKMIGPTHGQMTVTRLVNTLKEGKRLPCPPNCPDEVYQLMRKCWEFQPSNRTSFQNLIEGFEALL
Procedure, shortened: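 Two-step HTRF KinEASE assay: compound, kinase/biotinylated TK substrate and ATP were incubated at least 30 min at room temperature. Antibody plus streptavidin-XL665 was then added and plates were read after 60 min. Inhibition was derived from emission ratios according to the kit protocol.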

[6] = biological target: T6, wt human NUAK1, full length (Homo sapiens, UniProt O60285); experiment: TR-FRET LanthaScreen Eu Kinase Binding Assay, NUAK1; settings: read-out: IC50, Activity Toward NUAK1
T6 construct: 8 nM wt human NUAK1, full length (ThermoFisher/USA); purchased ThermoFisher
T6 sequence (O60285 1-661): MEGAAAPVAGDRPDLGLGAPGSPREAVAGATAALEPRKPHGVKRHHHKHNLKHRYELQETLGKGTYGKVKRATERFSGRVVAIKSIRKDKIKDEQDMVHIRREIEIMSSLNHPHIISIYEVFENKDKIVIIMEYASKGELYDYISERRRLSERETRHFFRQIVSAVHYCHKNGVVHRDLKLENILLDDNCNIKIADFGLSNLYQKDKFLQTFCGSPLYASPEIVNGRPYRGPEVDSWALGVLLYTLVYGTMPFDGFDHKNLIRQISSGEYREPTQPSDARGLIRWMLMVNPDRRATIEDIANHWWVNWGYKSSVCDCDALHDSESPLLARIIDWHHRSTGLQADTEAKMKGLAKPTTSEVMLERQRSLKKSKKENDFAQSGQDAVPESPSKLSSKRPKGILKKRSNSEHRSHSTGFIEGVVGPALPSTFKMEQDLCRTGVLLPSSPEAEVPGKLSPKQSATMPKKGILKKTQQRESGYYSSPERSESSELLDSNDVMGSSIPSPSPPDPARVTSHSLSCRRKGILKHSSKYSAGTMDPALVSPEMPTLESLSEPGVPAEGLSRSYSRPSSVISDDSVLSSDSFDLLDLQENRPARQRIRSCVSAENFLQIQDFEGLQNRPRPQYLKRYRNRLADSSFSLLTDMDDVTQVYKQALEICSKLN
Procedure, shortened: as §1

T1 sequence (Q5S007 970-2527 limits assumed): as the sequence (Q5S007 970-2527 G2019S limits assumed) above, with S1050G counted along it

| Structure (SMILES) | pIC50 [1] | pIC50 [2] | pIC50 [3] | pIC50 [4] | pIC50 [5] | pIC50 [6] |
| --- | --- | --- | --- | --- | --- | --- |
| CC(C)n1cnnc1-c1ccc(Nc2nn(-c3c(Cl)cccc3Cl)nc2C(N)=O)cc1 [compound 116, 2-(2,6-dichlorophenyl)-5-((4-(4-isopropyl-4H-1,2,4-triazol-3-yl)phenyl)amino)-2H-1,2,3-triazole-4-carboxamide] | 6.00 to 7.00 | > 8.00 | 6.00 to 7.00 | 6.00 to 7.00 |  |  |
| NC(=O)c1nn(-c2c(Cl)cccc2Cl)cc1Nc1ccc(C(=O)N2CCOCC2)cc1 [compound 17, 1-(2,6-dichlorophenyl)-4-((4-(morpholine-4-carbonyl)phenyl)amino)-1H-pyrazole-3-carboxamide] | 6.00 to 7.00 | > 8.00 | 6.00 to 7.00 | 6.00 to 7.00 | 7.00 to 8.00 |  |
| CN1CCN(C(=O)c2ccc(Nc3cn(-c4c(Cl)cccc4Cl)nc3C(N)=O)cc2)CC1 [compound 32, 1-(2,6-dichlorophenyl)-4-((4-(4-methylpiperazine-1-carbonyl)phenyl)amino)-1H-pyrazole-3-carboxamide] | 6.00 to 7.00 | > 8.00 | 6.00 to 7.00 | 6.00 to 7.00 | 7.00 to 8.00 |  |
| NC(=O)c1nn(-c2c(Cl)cccc2Cl)cc1Nc1ccc(-n2ncnc2C2COC2)cc1 [compound 347, 1-(2,6-dichlorophenyl)-4-((4-(5-(oxetan-3-yl)-1H-1,2,4-triazol-1-yl)phenyl)amino)-1H-pyrazole-3-carboxamide] | 6.00 to 7.00 | > 8.00 | 6.00 to 7.00 | 6.00 to 7.00 | 7.00 to 8.00 |  |
| NC(=O)c1nn(-c2c(Cl)cccc2Cl)cc1Nc1ccc(C(=O)N2CC(F)C2)cc1 [compound 425, 1-(2,6-dichlorophenyl)-4-((4-(3-fluoroazetidine-1-carbonyl)phenyl)amino)-1H-pyrazole-3-carboxamide] | 6.00 to 7.00 | > 8.00 | 6.00 to 7.00 | 6.00 to 7.00 | 7.00 to 8.00 |  |
| NC(=O)c1nn(-c2c(Cl)cccc2Cl)nc1Nc1ccc(-c2nncn2CC(F)F)cc1 [compound 113, 2-(2,6-dichlorophenyl)-5-((4-(4-(2,2-difluoroethyl)-4H-1,2,4-triazol-3-yl)phenyl)amino)-2H-1,2,3-triazole-4-carboxamide] | 6.00 to 7.00 | 7.00 to 8.00 | 6.00 to 7.00 | 6.00 to 7.00 | > 8.00 |  |
| NC(=O)c1nn(-c2c(Cl)cccc2Cl)nc1Nc1ccc(C(=O)N2CC(C(N)=O)C2)cc1 [compound 108] | 6.00 to 7.00 | > 8.00 | 6.00 to 7.00 | 6.00 to 7.00 | > 8.00 |  |
| NC(=O)c1nn(-c2c(Cl)cccc2Cl)cc1Nc1ccc(-c2nnc3n2CCOC3)cc1 [compound 57, 1-(2,6-dichlorophenyl)-4-((4-(6,8-dihydro-5H-[1,2,4]triazolo[3,4-c][1,4]oxazin-3-yl)phenyl)amino)-1H-pyrazole-3-carboxamide] | 6.00 to 7.00 | > 8.00 | 6.00 to 7.00 | 6.00 to 7.00 | 6.00 to 7.00 |  |
| Cc1cnnn1-c1ccc(Nc2nn(-c3c(Cl)cccc3Cl)nc2C(N)=O)cc1 [compound 131, 2-(2,6-dichlorophenyl)-5-((4-(5-methyl-1H-1,2,3-triazol-1-yl)phenyl)amino)-2H-1,2,3-triazole-4-carboxamide] | 6.00 to 7.00 | > 8.00 | 6.00 to 7.00 | 6.00 to 7.00 | 7.00 to 8.00 |  |
| CC(C)Cn1cnnc1-c1ccc(Nc2cn(-c3c(Cl)cccc3Cl)nc2C(N)=O)cc1 [compound 203, 1-(2,6-dichlorophenyl)-4-((4-(4-isobutyl-4H-1,2,4-triazol-3-yl)phenyl)amino)-1H-pyrazole-3-carboxamide] |  | > 8.00 |  | 6.00 to 7.00 | 7.00 to 8.00 | 6.00 to 7.00 |
| CN1CCN(C(=O)c2ccc(Nc3nn(-c4c(Cl)cccc4Cl)nc3C(N)=O)cc2)CC1 [compound 102, 2-(2,6-Dichloro-phenyl)-5-[4-(4-methyl-piperazine-1-carbonyl)-phenylamino]-2H-[1,2,3]triazole-4-carboxylic acid amide] |  | > 8.00 |  | 6.00 to 7.00 | > 8.00 | 6.00 to 7.00 |
| CN(C)C1CCN(C(=O)c2ccc(Nc3nn(-c4c(Cl)cccc4Cl)nc3C(N)=O)cc2)CC1 [compound 122, 2-(2,6-dichlorophenyl)-5-((4-(4-(dimethylamino)piperidine-1-carbonyl)phenyl)amino)-2H-1,2,3-triazole-4-carboxamide] | 6.00 to 7.00 | > 8.00 | 6.00 to 7.00 | 6.00 to 7.00 | 7.00 to 8.00 |  |
| NC(=O)c1nn(-c2c(Cl)cccc2Cl)nc1Nc1ccc(C(=O)N2CC(F)C2)cc1 [compound 129, 2-(2,6-dichlorophenyl)-5-((4-(3-fluoroazetidine-1-carbonyl)phenyl)amino)-2H-1,2,3-triazole-4-carboxamide] | 6.00 to 7.00 | > 8.00 | 6.00 to 7.00 | 6.00 to 7.00 | > 8.00 |  |
| CCc1cnncc1-c1ccc(Nc2cn(-c3c(Cl)cccc3Cl)nc2C(N)=O)cc1 [compound 322, 1-(2,6-dichlorophenyl)-4-((4-(5-ethylpyridazin-4-yl)phenyl)amino)-1H-pyrazole-3-carboxamide] | 6.00 to 7.00 | 7.00 to 8.00 | 6.00 to 7.00 | 6.00 to 7.00 | 7.00 to 8.00 |  |
| Cn1ncnc1-c1ccc(Nc2cn(-c3c(Cl)cccc3Cl)nc2C(N)=O)cc1 [compound 96, 1-(2,6-dichlorophenyl)-4-((4-(1-methyl-1H-1,2,4-triazol-5-yl)phenyl)amino)-1H-pyrazole-3-carboxamide] |  | 7.00 to 8.00 |  | 6.00 to 7.00 | 7.00 to 8.00 |  |
| N#Cc1cccc(Cl)c1-n1nc(Nc2ccc(C(=O)N3CC[C@@H](F)C3)cc2)c(C(N)=O)n1 [compound 162, (R)-2-(2-chloro-6-cyanophenyl)-5-((4-(3-fluoropyrrolidine-1-carbonyl)phenyl)amino)-2H-1,2,3-triazole-4-carboxamide] |  | > 8.00 |  | 6.00 to 7.00 | 7.00 to 8.00 |  |
| CCn1cnnc1-c1ccc(Nc2cn(-c3c(Cl)cc(F)cc3Cl)nc2C(N)=O)cc1 [compound 414, 1-(2,6-dichloro-4-fluorophenyl)-4-((4-(4-ethyl-4H-1,2,4-triazol-3-yl)phenyl)amino)-1H-pyrazole-3-carboxamide] | 6.00 to 7.00 | > 8.00 | 6.00 to 7.00 | 6.00 to 7.00 | 7.00 to 8.00 |  |
